How the values were obtained:
[1] = system: macrophage pro-inflammatory gene expression; assay: DAMP characterization assay: nutrient deprived tumor cell conditioned medium on macrophages; format: cell-based, mouse; conditions: BVT948 5 μM, 24 hours
Experimental: DAMP characterization assay. B16F10 or GEMM6 cells were resuspended in DMEM deficient media with 1% penicillin-streptomycin (Gibco) and incubated for 3 days. Conditioned media was collected, filtered with a 0.2 μm filter and incubated with 0.35 U/ml proteinase K-agarose beads (Sigma Millipore) or 40 U/ml of benzonase endonuclease (Sigma Millipore) for 4 hours at 37° C. under rotation. Conditioned media was two-fold diluted with DMEM/F12 with 10% FBS, 1% penicillin-streptomycin (Gibco) and 20 ng/ml of M-CSF (Prospec), supplemented with 5 μM BVT948 (Sigma Millipore) and added to primary mural macrophages for 24 hours.
(§1) qRT-PCR. RNA was isolated using the RNeasy Plus Mini Kit (Quiagen) and cDNA was prepared using the Reverse Transcription System (Promega) with one-hour reverse transcription process. qRT-PCR was done using the PowerUp™ SYBR™ Green Master Mix (Applied Biosystems) on a QuantStudio Pro Real-time PCR system (Applied Biosystems) with a 95° C. pretreatment of 10 min, 50 cycles of 95° C., 10 sec and 60° C., 1 min and melt curve at the end. Analysis was performed with the 2^−ΔΔCT method(136).

[2] = system: macrophage M1 associated gene expression; assay: Cisplatin treated transwell co-culture of macrophages and B16F10 cells, qRT-PCR; format: cell-based, mouse
Experimental: Peritoneal macrophage isolation and culture. Peritoneal macrophages were done as described previously(65) from 8-week-old C57BL/6J mice (randomized, both male and female). PBS (Gibco) was injected in the mural peritoneal cavity to release the macrophages. After recovering, cells were centrifuged at 1200 rpm for 5 minutes, resuspended in DMEM high glucose, 10% FBS, 1% penicillin-streptomycin (Gibco) and plated. 2 hours after the last step, cells were washed with PBS and maintained in DMEM/F12 supplemented with 10% FBS, 1% penicillin-streptomycin and 20 ng/ml of M-CSF (Prospec) for 2 days. Macrophages were treated for 24 hours with 50 ng/ml LPS (Sigma Millipore), 100 ng/ml IFNγ (BioLegend), 300 ng/ml PAM3CSK4 (InvivoGen), 107 cells/ml heat killed Listeria Monocytogenes (HKLM) (InvivoGen), 100 ng/ml Flagellin Salmonella typhimurium standard (InvivoGen), 10 ng/ml FSL1 (InvivoGen), 2.5 ug/ml ssRNA40 (InvivoGen), 2.5 ug/ml CL 075 (Tocris), 5 μM ODN1826, 50 μM Fludarabine (SelleckChem), 50 nM Momelotinib (SelleckChem), 5 μM BVT948 (Sigma Millipore), 200 μM PTP1b inhibitor III (Santa Cruz Biotechnology Inc.), 5 μM NSC87877 (Santa Cruz Biotechnology Inc.), 50 μM PTP1b inhibitor (Cayman), 1 mM PTP Inhibitor IV (Santa Cruz Biotechnology Inc.), 1 μM TSC401, 300 nM UNC2371 (SelleckChem), 300 nM BMS777607 (SelleckChem), 300 nM LDC1267 (SelleckChem) 1.5 μg/ml recombinant Pros1 (R&D systems), 200 ng/ml recombinant Gas6 (R&D systems) or 10-500 μM Cisplatin (Tocris). All components were added as described in the text. Cell culture. B16F10 (CRL-6475, ATCC), Lewis lung carcinoma (LLC) (CRL-1642, ATCC), KPC2713 (Yuliya Pylayeva-Gupta laboratory, UNC) and MDA-MB-231 (HTB-26, ATCC) were cultured in DMEM high glucose supplemented with 10% FBS, 1% penicillin-streptomycin (Gibco). GEMM6 (Dr. Alisha Holtzhausen, UNC), KPPC4662 (Dr. Yuliya Pylayeva-Gupta laboratory, UNC), KPPC4548 (Yuliya Pylayeva-Gupta laboratory, UNC) and E0771 (CRL-3461, ATCC) were maintained in RPMI 1640 supplemented with […], 1% penicillin/streptomycin (Gibco) while PyMT cells were cultured in Ham's F-12K with 10% FBS, 1% penicillin-streptomycin (Gibco). Transwell assays were performed in 0.4 μm polyester membrane insert culture plates (Corning). 500,000 cells of each line were plated per well in DMEM/F12 supplemented with 10% FBS, 1% penicillin-streptomycin and 20 ng/ml of M-CSF for culture with mouse macrophages. SC cells (CRL-9855, ATCC) were cultured in IMDM with 10% FBS and 1% penicillin-streptomycin (Gibco). In transwell experiments with the SC cell line, cancer cells were also resuspended in IMDM media.
as §1

B16F10 tumors = assay: Subcutaneous B16F10 melanoma tumor model; format: in vivo, mouse
Experimental: (§2) Tumor implantation, treatment and harvest. For animal studies, 1*10^5 B16F10 luciferase-tagged melanoma cells, 1*10^6 GEMM6 melanoma cells or 2*10^6 LCC cells were implanted subcutaneously into C57BL/6J mice (randomized, both males and females, 000664 The Jackson laboratory). When indicated, mice received intraperitoneal injections 7 days after implantation with 100 μl of 5 mg/kg cisplatin (Tocris), 100 μl of 10 mg/kg BVT948 (Tocris) or 100 μl of 30 mg/kg of vemurafenib. 5 mice were used per experimental group and tumors were harvested when they reached 1.5 cm in any direction.
(§3) Immunohistochemistry analysis. Immunohistochemistry assay was carried out in formalin-fixed, paraffin-embedded 4 μm sections using primary antibodies against F4:80 (AbD Serotec), CD11b (Abcam), CD4 (eBioscience) or CD8a (eBioscience) on a Discovery Ultra Automated IHC staining system (Ventana). Sections were then imaged using a ScanScope XT microscope (Aperio) and quantified using Aperio software.

LLC tumors = assay: Subcutaneous LLC tumor model; format: in vivo, mouse
Experimental: as §2, §3

[3] = BVT948 10 mg/kg or Cisplatin 5 mg/kg intraperitoneal, treatment from 50 mm^3
[4] = BVT948 in combination with Cisplatin

For BVT948, the “DAMP mediated macrophage activation (pro-inflammatory gene expression)” value ([1]; B16F10 nutrient deprivation conditioned medium) was “able to restore DAMP mediated macrophage activation”, the pro-inflammatory gene expression ([1]; GEMM6 nutrient deprivation conditioned medium) was “rescued pro-inflammatory gene expression” and the “macrophage pro-inflammatory gene expression, PTP1b inhibition in combination with Cisplatin” value ([2]; BVT948 with Cisplatin 50 μM to 500 μM, wildtype macrophages with B16F10 cells) was “able to restore macrophage pro-inflammatory gene expression, in a dose dependent manner”. For the same substance, the “M1 gene expression in MyD88 knockout macrophages” value ([2]; increasing Cisplatin, with or without BVT948) was “Neither increasing concentrations of Cisplatin, nor PTP1 b inhibition, were able to restore M1 gene expression”, the “B16F10 tumor growth, monotherapy vs vehicle” value (B16F10 tumors; [3]) was “did not significantly reduce” and the “decrease in B16F10 tumor growth, combination” value (B16F10 tumors; [4]) was “roughly 50%”. The “reduction in tumor viability (H&E staining)” value (B16F10 tumors; BVT948 monotherapy, B16F10 tumors) was 20%, the intra-tumoral immune infiltrate (B16F10 tumors; BVT948 monotherapy, end-stage B16F10) was “some increases in macrophage and T cells” and the “LLC tumor growth reduction, monotherapy” value (LLC tumors; [3]) was 30%. The “decrease in LLC tumor growth, combination” value (LLC tumors; [4]) was “roughly 50%” and the “tumor viability (H&E staining)” value (LLC tumors; BVT948 monotherapy, LLC tumors) was “not significantly changed”.

Source: patent US20250041272A1, “COMPOSITIONS AND METHODS FOR TREATING CANCER VIA PTP1B INHIBITION” (priority 2021, published 2025)
